Laboratory results as given in ChEMBL document CHEMBL1141850, “Glucosidation of betulinic acid by Cunninghamella species” (1999).
≈ marks a conversion by molar mass, not a printed value.

Columns and labels:
Assay type in all cases: functional
Conditions in all cases: read-out: ED50 (the source's name)
[1] = Cytotoxicity against human MEL1 cells
[2] = Cytotoxicity against human MEL2 cells
[3] = Cytotoxicity against human MEL3 cells
[4] = Cytotoxicity against human MEL7 cells

| SMILES | EC50 [1] [µg/mL] | EC50 [2] [µg/mL] | EC50 [3] [µg/mL] | EC50 [4] [µg/mL] |
| --- | --- | --- | --- | --- |
| C=C(C)[C@@H]1CC[C@]2(C(=O)O[C@@H]3O[C@H](CO)[C@@H](O)[C@H](O)[C@H]3O)CC[C@]3(C)[C@H](CC[C@@H]4[C@@]5(C)CC[C@H](O)C(C)(C)[C@@H]5CC[C@]43C)[C@@H]12 | > 20 | > 20 | > 20 | > 20 |
| C=C(C)[C@@H]1CC[C@]2(C(=O)O)CC[C@]3(C)[C@H](CC[C@@H]4[C@@]5(C)CC[C@H](O)C(C)(C)[C@@H]5CC[C@]43C)[C@@H]12 [BETULINIC ACID] | 1.4 (≈ 3.07 µM) | 1.2 (≈ 2.63 µM) | 1.8 (≈ 3.94 µM) | 4.4 (≈ 9.63 µM) |
